Laboratory results as given in US20230081426A1, “COMPOUNDS AND METHODS FOR KRAS MODULATION AND INDICATIONS THEREFOR” (Plexxikon Inc., priority 2020, published 2023).

How the values were obtained:
[1] = molecular target: T1, G12D-mutant human KRAS (amino acid residues 1-188) (Homo sapiens, UniProt P01116, G12D); test: KRAS Binding Disruption Assay (AlphaScreen; biotinylated KRpep-2d analogue or RAF1-RBD), G12D; conditions: KRAS G12D; geometric mean; read-out: KRAS GMean IC50 (uM) MUTATION: G12D
T1 construct: G12D or G12C-mutant human KRAS (amino acid residues 1-188) with FLAG tag; made in house; host or cells: E. coli
Method in brief: (§1)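 Displacement format with mutant KRAS, biotinylated KRpep-2d analogue or RAF1-RBD (5-20 nM each) at pH 7.5 with 5 mM MgCl2.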

[2] = molecular target: T2, G12C-mutant human KRAS (amino acid residues 1-188) (Homo sapiens, UniProt P01116, G12C); test: KRAS Binding Disruption Assay (AlphaScreen; biotinylated KRpep-2d analogue or RAF1-RBD), G12C; conditions: geometric mean, read-out: KRAS GMean IC50 (uM) MUTATION: G12C
T2 construct: G12D or G12C-mutant human KRAS (amino acid residues 1-188) with FLAG tag; made in house; host or cells: E. coli
Method in brief: as §1

[3] = molecular target: T3, G12V-mutant human KRAS (amino acid residues 1-188) (Homo sapiens, UniProt P01116, G12V); test: KRAS Binding Competition Assay (AlphaScreen; biotinylated KRpep-2d analogue), G12V; conditions: geometric mean, read-out: KRAS GMean IC50 (uM) MUTATION: G12V
T3 construct: G12V-mutant human KRAS (amino acid residues 1-188) with FLAG tag was purified from E. coli; made in house; host or cells: E. coli

Row | Structure (SMILES) | IC50 [1] [µM] | IC50 [2] [µM] | IC50 [3] [µM]
1 | CCCNS(=O)(=O)N1[C@@H]2CC[C@H]1CN(c1nc(OCC34CCCN3CCC4)nc3cc(-c4cc(O)cc5ccccc45)ccc13)C2 [P-0096, (1R,5S)-3-(7-(3-hydroxynaphthalen-1-yl)-2-((tetrahydro-1H-pyrrolizin-7a(5H)-yl)methoxy)quinazolin-4-yl)-N-propyl-3,8-diazabicyclo[3.2.1]octane-8-sulfonamide] | 0.0001 to 10 | 0.0001 to 10 | 10 to 100
2 | O=C(c1n[nH]c(=O)[nH]1)N1[C@@H]2CC[C@H]1CN(c1nc(OCC34CCCN3CCC4)nc3cc(-c4cc(O)cc5ccccc45)ccc13)C2 [P-0099, 5-((1R,5S)-3-(7-(3-hydroxynaphthalen-1-yl)-2-((tetrahydro-1H-pyrrolizin-7a(5H)-yl)methoxy)quinazolin-4-yl)-3,8-diazabicyclo[3.2.1]octane-8-carbonyl)-2,4-dihydro-3H-1,2,4-triazol-3-one] | 0.0001 to 10 | 0.0001 to 10 | 0.0001 to 10
3 | NCC(O)CC(=O)N1[C@@H]2CC[C@H]1CN(c1nc(OCC34CCCN3CCC4)nc3cc(-c4cc(O)cc5ccccc45)ccc13)C2 (stereo partly drawn) [P-0100, 4-amino-3-hydroxy-1-((1R,5S)-3-(7-(3-hydroxynaphthalen-1-yl)-2-((tetrahydro-1H-pyrrolizin-7a(5H)-yl)methoxy)quinazolin-4-yl)-3,8-diazabicyclo[3.2.1]octan-8-yl)butan-1-one] | 0.0001 to 10 | 0.0001 to 10 | 0.0001 to 10
4 | Oc1cc(-c2ccc3c(N4C[C@H]5CC[C@@H](C4)N5)nc(OCC45CCCCN4CCC5)nc3c2)c2ccccc2c1 (stereo partly drawn) [P-0102, 4-(4-((1R,5S)-3,8-diazabicyclo[3.2.1]octan-3-yl)-2-((hexahydroindolizin-8a(1H)-yl)methoxy)quinazolin-7-yl)naphthalen-2-ol] | 0.0001 to 10 | 0.0001 to 10 | 0.0001 to 10
5 | CN1CCC[C@H]1COc1nc(N2C[C@H]3CC[C@@H](C2)N3C(N)=O)c2ccc(-c3cc(O)cc4ccccc34)c(F)c2n1 [P-0103, (1R,5S)-3-(8-fluoro-7-(3-hydroxynaphthalen-1-yl)-2-(((S)-1-methylpyrrolidin-2-yl)methoxy)quinazolin-4-yl)-3,8-diazabicyclo[3.2.1]octane-8-carboxamide] | 0.0001 to 10 | 0.0001 to 10 | 0.0001 to 10
6 | CN1CCC[C@H]1COc1nc(N2C[C@H]3CC[C@@H](C2)N3C(=O)NC2CCNC2)c2ccc(-c3cc(O)cc4ccccc34)c(F)c2n1 (stereo partly drawn) [P-0106, (1R,5S)-3-(8-fluoro-7-(3-hydroxynaphthalen-1-yl)-2-(((S)-1-methylpyrrolidin-2-yl)methoxy)quinazolin-4-yl)-N-(pyrrolidin-3-yl)-3,8-diazabicyclo[3.2.1]octane-8-carboxamide] | 0.0001 to 10 | 0.0001 to 10 | 0.0001 to 10
7 | O=C(CC1CCNC1)N1[C@@H]2CC[C@H]1CN(c1nc(OCC34CCCN3CCC4)nc3cc(-c4cc(O)cc5ccccc45)ccc13)C2 (stereo partly drawn) [P-0110, 1-((1R,5S)-3-(7-(3-hydroxynaphthalen-1-yl)-2-((tetrahydro-1H-pyrrolizin-7a(5H)-yl)methoxy)quinazolin-4-yl)-3,8-diazabicyclo[3.2.1]octan-8-yl)-2-(pyrrolidin-3-yl)ethan-1-one] | 0.0001 to 10 | 0.0001 to 10 | 0.0001 to 10
8 | CN1CCC[C@H]1COc1nc(N2CC3CCC(C2)N3C(=O)Cc2ccc(N)cc2)c2ccc(-c3cc(O)cc4ccccc34)cc2n1 [P-0115] | 0.0001 to 10 | 0.0001 to 10 | 10 to 100
9 | CN1CCN(CCC(=O)N2[C@@H]3CC[C@H]2CN(c2nc(OC[C@@H]4CCCN4C)nc4cc(-c5cc(O)cc6ccccc56)ccc24)C3)CC1 [P-0116, 1-((1R,5S)-3-(7-(3-hydroxynaphthalen-1-yl)-2-(((S)-1-methylpyrrolidin-2-yl)methoxy)quinazolin-4-yl)-3,8-diazabicyclo[3.2.1]octan-8-yl)-3-(4-methylpiperazin-1-yl)propan-1-one] | 0.0001 to 10 | 10 to 100 | 10 to 100
10 | CN1CCC[C@H]1COc1nc(N2C[C@H]3CC[C@@H](C2)N3C(=O)Cc2c[nH]cn2)c2ccc(-c3cc(O)cc4ccccc34)cc2n1 [P-0117, 1-((1R,5S)-3-(7-(3-hydroxynaphthalen-1-yl)-2-(((S)-1-methylpyrrolidin-2-yl)methoxy)quinazolin-4-yl)-3,8-diazabicyclo[3.2.1]octan-8-yl)-2-(1H-imidazol-4-yl)ethan-1-one] | 0.0001 to 10 | 0.0001 to 10 | 0.0001 to 10
11 | CN1CCC[C@H]1COc1nc(N2C[C@H]3CC[C@@H](C2)N3C(=O)CN2CCCC2)c2ccc(-c3cc(O)cc4ccccc34)cc2n1 [P-0118, 1-((1R,5S)-3-(7-(3-hydroxynaphthalen-1-yl)-2-(((S)-1-methylpyrrolidin-2-yl)methoxy)quinazolin-4-yl)-3,8-diazabicyclo[3.2.1]octan-8-yl)-2-(pyrrolidin-1-yl)ethan-1-one] | 0.0001 to 10 | 0.0001 to 10 | 10 to 100
12 | CN1CCN(CCCC(=O)N2[C@@H]3CC[C@H]2CN(c2nc(OC[C@@H]4CCCN4C)nc4cc(-c5cc(O)cc6ccccc56)ccc24)C3)CC1 [P-0119, 1-((1R,5S)-3-(7-(3-hydroxynaphthalen-1-yl)-2-(((S)-1-methylpyrrolidin-2-yl)methoxy)quinazolin-4-yl)-3,8-diazabicyclo[3.2.1]octan-8-yl)-4-(4-methylpiperazin-1-yl)butan-1-one] | 0.0001 to 10 | 0.0001 to 10 | 10 to 100
13 | CN1CCC[C@H]1COc1nc(N2C[C@H]3CC[C@@H](C2)N3C(=O)CCn2cccn2)c2ccc(-c3cc(O)cc4ccccc34)cc2n1 [P-0120, 1-((1R,5S)-3-(7-(3-hydroxynaphthalen-1-yl)-2-(((S)-1-methylpyrrolidin-2-yl)methoxy)quinazolin-4-yl)-3,8-diazabicyclo[3.2.1]octan-8-yl)-3-(1H-pyrazol-1-yl)propan-1-one] | 0.0001 to 10 | 0.0001 to 10 | 0.0001 to 10
14 | CN1CCC[C@H]1COc1nc(N2C[C@H]3CC[C@@H](C2)N3C(=O)Cc2cnccn2)c2ccc(-c3cc(O)cc4ccccc34)cc2n1 [P-0121, 1-((1R,5S)-3-(7-(3-hydroxynaphthalen-1-yl)-2-(((S)-1-methylpyrrolidin-2-yl)methoxy)quinazolin-4-yl)-3,8-diazabicyclo[3.2.1]octan-8-yl)-2-(pyrazin-2-yl)ethan-1-one] | 0.0001 to 10 | 10 to 100 | 10 to 100
15 | O=C(N[C@@H]1CCNC1)N1[C@@H]2CC[C@H]1CN(c1nc(OCC34CCCN3CCC4)nc3cc(-c4cc(O)cc5ccccc45)ccc13)C2 [P-0122, (1R,5S)-3-(7-(3-hydroxynaphthalen-1-yl)-2-((tetrahydro-1H-pyrrolizin-7a(5H)-yl)methoxy)quinazolin-4-yl)-N-((R)-pyrrolidin-3-yl)-3,8-diazabicyclo[3.2.1]octane-8-carboxamide] | 0.0001 to 10 | 0.0001 to 10 | 0.0001 to 10
16 | O=C(N[C@H]1CCNC1)N1[C@@H]2CC[C@H]1CN(c1nc(OCC34CCCN3CCC4)nc3cc(-c4cc(O)cc5ccccc45)ccc13)C2 [P-0123, (1R,5S)-3-(7-(3-hydroxynaphthalen-1-yl)-2-((tetrahydro-1H-pyrrolizin-7a(5H)-yl)methoxy)quinazolin-4-yl)-N-((S)-pyrrolidin-3-yl)-3,8-diazabicyclo[3.2.1]octane-8-carboxamide] | 0.0001 to 10 | 0.0001 to 10 | 0.0001 to 10
